The source of these data is paper PMC6491818, “Novel 4-Acrylamido-Quinoline Derivatives as Potent PI3K/mTOR Dual Inhibitors: The Design, Synthesis, and in vitro and in vivo Biological Evaluation” (Frontiers in Chemistry, 2019).

“Also recorded” adds a separate entry of the source.

One data set addresses PI3Kγ (Homo sapiens, UniProt P48736). Nature of the data set: PI3Kγ enzymatic assay (ADP-Glo Luminescent assay). The class given is biochemical. Here is the method:
(§1) Kinase-Glo Luminescent Kinase assay (Promega) was performed to determine the PI3Kα inhibitory activity, while ADP-Glo Luminescent assay (Promega) was performed to identify the inhibitory activity against PI3Kβ, γ, or δ. The kinase buffer was composed of HEPES (50 mM, pH 7.5), MgCl2 (3 mM), EGTA (1 mM), NaCl (100 mM), CHAPS (0.03%) and DTT (2 mM). The serially diluted compound solutions […] were successively added to a 384-well plate. Afterwards, the solution of kinase […] in the kinase buffer and the solution of substrate (5 mL) in the kinase buffer containing PIP2 and ATP were added to each well of the assay plate for starting the reaction. Kinase buffer was added instead to the control well without enzyme. The final concentrations of PI3Kα, PI3Kβ, PI3Kγ, PI3Kδ, PIP2, and ATP in corresponding kinase reaction mixture were 1.65 nM, 4.8 nM, 7.6 nM, 5.7 nM, […], respectively. After being incubated at room temperature for 1 h, Kinase-Glo reagent (10 mL) was added to each well of the PI3Kα assay plate to quench the reaction. Subsequently, the mixture needs to be mixed briefly with centrifuge and shaken slowly for 15 min before being read on a plate reader for luminescence. As for PI3Kβ, γ, or δ, reaction mixture (5 mL) was transferred to a new 384-plate and ADP-Glo reagent (5 mL) was added for stopping the reaction. The mixture was treated briefly with centrifuge, shaken slowly, and equilibrated for 40 min. Kinase Detection reagent (10 mL) was added to each well. Before reading on a plate reader for luminescence, the resultant mixture was incubated at room temperature for 1 h. After calculating the percent inhibition from the RLU values, the curves were fitted in Graphpad Prism 5 to give IC50 values.

Another data set concerns the target PI3Ks and mTOR. Nature of the data set: Enzymatic activity against PI3Ks and mTOR (summary over all tested enzymes). It is filed as biochemical. The following applies: PI3Kα, PI3Kβ, PI3Kγ, PI3Kδ and mTOR. As for the experimental part: as §1, with “After being incubated at room temperature for 1 h, Kinase-Glo reagent (10 mL) was added to each well of the PI3Kα assay plate to quench the reaction.” left out, “As for PI3Kβ, γ, or δ, reaction mixture (5 mL) was transferred to a new 384-plate and ADP-Glo reagent (5 mL) was added for stopping the reaction. The mixture was treated briefly with centrifuge, shaken slowly, and equilibrated for 40 min. Kinase Detection reagent (10 mL) was added to each well.” left out, “After calculating the percent inhibition from the RLU values, the curves were fitted in Graphpad Prism 5 to give IC50 values.” left out
Lance Ultra assay was performed to determine the mTOR (1362-end, Millipore) inhibitory activity. […] Before reading on a plate reader, the mixture needs to be mixed briefly with centrifuge and then allowed to equilibrate for 1 h. […]

For the next data set, the target named is PI3Kβ (Homo sapiens, UniProt P42338). Nature of the data set: PI3Kβ enzymatic assay (ADP-Glo Luminescent assay). The class given is biochemical.
Chain of PI3Kβ (P42338 whole entry): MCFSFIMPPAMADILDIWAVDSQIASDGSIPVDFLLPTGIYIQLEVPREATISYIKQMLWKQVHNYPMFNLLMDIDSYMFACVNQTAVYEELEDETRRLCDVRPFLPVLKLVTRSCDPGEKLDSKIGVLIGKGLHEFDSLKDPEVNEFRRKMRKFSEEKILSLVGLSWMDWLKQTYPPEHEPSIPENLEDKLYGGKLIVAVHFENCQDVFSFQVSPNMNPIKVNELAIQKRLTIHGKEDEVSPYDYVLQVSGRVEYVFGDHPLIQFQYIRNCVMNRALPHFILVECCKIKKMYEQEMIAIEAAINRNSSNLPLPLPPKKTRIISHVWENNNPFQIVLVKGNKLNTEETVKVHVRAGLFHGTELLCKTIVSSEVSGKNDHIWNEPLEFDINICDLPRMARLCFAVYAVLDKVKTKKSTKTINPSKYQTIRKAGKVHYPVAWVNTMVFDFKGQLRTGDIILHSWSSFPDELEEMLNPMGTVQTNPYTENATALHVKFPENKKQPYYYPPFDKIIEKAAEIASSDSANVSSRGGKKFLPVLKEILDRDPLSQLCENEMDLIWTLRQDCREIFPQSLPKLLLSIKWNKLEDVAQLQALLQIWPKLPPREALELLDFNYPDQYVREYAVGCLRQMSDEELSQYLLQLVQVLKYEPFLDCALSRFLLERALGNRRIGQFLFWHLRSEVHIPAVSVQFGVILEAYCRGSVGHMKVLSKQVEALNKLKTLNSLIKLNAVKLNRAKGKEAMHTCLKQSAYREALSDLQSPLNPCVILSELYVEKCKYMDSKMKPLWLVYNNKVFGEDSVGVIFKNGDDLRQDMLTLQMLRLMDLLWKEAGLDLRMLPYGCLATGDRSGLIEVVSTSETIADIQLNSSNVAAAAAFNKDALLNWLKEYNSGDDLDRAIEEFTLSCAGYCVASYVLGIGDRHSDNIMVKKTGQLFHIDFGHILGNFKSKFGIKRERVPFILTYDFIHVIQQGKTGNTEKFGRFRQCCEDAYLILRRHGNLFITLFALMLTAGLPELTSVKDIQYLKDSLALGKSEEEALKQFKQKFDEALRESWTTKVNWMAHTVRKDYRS
Chain of PI3Kβ (P27986 whole entry partner): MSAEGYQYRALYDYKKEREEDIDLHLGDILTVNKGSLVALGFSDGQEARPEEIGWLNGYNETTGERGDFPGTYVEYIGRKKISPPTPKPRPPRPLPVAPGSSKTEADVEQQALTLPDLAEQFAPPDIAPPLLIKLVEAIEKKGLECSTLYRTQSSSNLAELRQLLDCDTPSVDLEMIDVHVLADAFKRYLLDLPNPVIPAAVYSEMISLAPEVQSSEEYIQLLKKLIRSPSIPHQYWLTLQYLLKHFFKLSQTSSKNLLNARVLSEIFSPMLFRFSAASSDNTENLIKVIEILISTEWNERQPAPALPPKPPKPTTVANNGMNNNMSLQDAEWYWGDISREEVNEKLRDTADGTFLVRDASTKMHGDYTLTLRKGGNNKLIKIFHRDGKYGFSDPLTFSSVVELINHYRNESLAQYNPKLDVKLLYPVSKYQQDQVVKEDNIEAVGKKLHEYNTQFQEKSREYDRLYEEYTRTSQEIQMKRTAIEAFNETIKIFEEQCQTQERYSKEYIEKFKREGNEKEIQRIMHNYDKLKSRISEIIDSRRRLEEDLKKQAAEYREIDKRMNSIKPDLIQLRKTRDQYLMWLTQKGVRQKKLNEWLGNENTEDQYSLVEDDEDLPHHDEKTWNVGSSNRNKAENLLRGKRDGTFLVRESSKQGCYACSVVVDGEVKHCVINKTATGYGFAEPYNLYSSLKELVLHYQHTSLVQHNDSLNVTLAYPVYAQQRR
The subject of data set [1] is phos-Akt (Ser473), phos-Akt (Thr308), phos-S6 ribosomal protein (Ser235/236), phos-4E-BP1 (Thr37/46). Description: Western blot of PI3K/Akt/mTOR signaling biomarkers in PC3 cells. To be noted: 3 h treatment. It is filed as cell-based. As for the experimental part: The Western blot analysis for evaluating the capability to down-regulate phos-Akt (Ser473), phos-Akt (Thr308), phos-S6 ribosomal protein (Ser235/236), and phos-4E-BP1 (Thr37/46) in PC3 cells was performed according to the protocol disclosed in our previous study (Zhang et al., [2017a]) with a minor modification. The cells were seeded into six-well plate at 1 × 10^6 cells per well, and then incubated at 37°C (5% CO2) overnight prior to drug treatment.

Data set [2] can be described thus: Liver microsomal stability assay, HLM. To be noted: human, liver microsomes.
Data set [3] concerns colorectal cancer HCT116 cell line. Description: Anti-proliferative SRB assay, HCT116. The class given is cell-based. To be noted: 72 h exposure. Here is the method: (§2) The anti-proliferative activity of compounds was evaluated by sulforhodamin B (SRB) assay. After being cultured for 10 h, cells in 96-well plates were subjected to 72 h-exposure to serially diluted compound solutions. Cells were washed with PBS and fixed with trichloroacetic acid (10%, W/V) at 4°C for 1 h. Then, cells were successively washed with PBS, stained for 0.5 h with SRB (0.4%, dissolved in 1% acetic acid), and washed by 1% acetic acid for 5 times. Protein-bound dye was extracted with unbuffered Tris base (10 mmol). After calculating the percent inhibition from absorbance, measured at 515 nm with a multiscan spectrum (Thermo Electron Co., Vantaa, Finland), the curves were fitted in Graphpad Prism 5 to give GI50 values.

For data set [4], the target named is mTOR (1362-end, Millipore) (Homo sapiens, UniProt P42345). Description: mTOR enzymatic assay (Lance Ultra assay). It is filed as biochemical.
Chain of mTOR (1362-end, Millipore) (P42345 1362-2549 limits assumed): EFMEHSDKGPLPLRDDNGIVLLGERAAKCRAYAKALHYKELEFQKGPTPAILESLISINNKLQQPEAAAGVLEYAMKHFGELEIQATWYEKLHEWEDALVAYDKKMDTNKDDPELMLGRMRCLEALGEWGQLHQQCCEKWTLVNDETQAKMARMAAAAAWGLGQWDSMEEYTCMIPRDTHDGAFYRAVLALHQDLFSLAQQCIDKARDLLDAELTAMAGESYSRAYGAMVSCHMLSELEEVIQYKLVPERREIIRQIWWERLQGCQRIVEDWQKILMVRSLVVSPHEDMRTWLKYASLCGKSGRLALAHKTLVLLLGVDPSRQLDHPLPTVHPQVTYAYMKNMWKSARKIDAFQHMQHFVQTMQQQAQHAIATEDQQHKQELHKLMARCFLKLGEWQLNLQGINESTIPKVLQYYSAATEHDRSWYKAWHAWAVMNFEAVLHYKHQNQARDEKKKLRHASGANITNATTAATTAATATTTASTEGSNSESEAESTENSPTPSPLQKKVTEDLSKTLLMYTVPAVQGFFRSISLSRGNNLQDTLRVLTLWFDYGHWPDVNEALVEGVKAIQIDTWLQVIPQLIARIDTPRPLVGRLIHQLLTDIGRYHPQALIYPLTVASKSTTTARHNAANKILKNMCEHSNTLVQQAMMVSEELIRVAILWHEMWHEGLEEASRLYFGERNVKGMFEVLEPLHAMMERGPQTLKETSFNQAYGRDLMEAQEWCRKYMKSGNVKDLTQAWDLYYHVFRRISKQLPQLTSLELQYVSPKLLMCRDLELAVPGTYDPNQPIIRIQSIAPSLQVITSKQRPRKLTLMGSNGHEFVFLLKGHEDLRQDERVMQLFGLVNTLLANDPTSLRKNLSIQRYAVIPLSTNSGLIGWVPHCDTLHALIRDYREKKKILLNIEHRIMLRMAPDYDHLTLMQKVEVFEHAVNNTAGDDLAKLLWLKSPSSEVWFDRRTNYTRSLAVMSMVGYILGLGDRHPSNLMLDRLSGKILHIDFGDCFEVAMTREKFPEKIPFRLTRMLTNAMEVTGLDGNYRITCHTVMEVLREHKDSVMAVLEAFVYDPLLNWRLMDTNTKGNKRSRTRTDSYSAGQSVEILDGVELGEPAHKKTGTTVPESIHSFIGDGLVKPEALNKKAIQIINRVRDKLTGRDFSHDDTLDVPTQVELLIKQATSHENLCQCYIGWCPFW
Method: The kinase buffer was composed of HEPES (50 mM, pH 7.5), MgCl2 (10 mM), EGTA (1 mM), MnCl2 (3 mM), Tween-20 (0.01%) and DTT (2 mM). The solution of substrate in the kinase buffer contained ULight-4E-BP1 peptide (Thr37/46, PE) and ATP. […] After being incubated at room temperature for 1 h, kinase detection buffer (10 mL) containing EDTA and Eu-anti-phospho-4E-BP1 antibody (Thr37/46, PE) was added to each well of the assay plate. Before reading on a plate reader, the mixture needs to be mixed briefly with centrifuge and then allowed to equilibrate for 1 h. After calculating the percent inhibition from Lance signal, the curves were fitted in Graphpad Prism 5 to give IC50 values.
The test system of data set [5] is prostate cancer PC3 cell line. Nature of the data set: Anti-proliferative SRB assay, PC3. To be noted: PC3 cells, 72 h exposure. It is filed as cell-based. As for the experimental part: as §2
For a further data set, the target named is PI3Kδ (Homo sapiens, UniProt O00329). Description: PI3Kδ enzymatic assay (ADP-Glo Luminescent assay). It is filed as biochemical.
Chain of PI3Kδ (O00329 whole entry): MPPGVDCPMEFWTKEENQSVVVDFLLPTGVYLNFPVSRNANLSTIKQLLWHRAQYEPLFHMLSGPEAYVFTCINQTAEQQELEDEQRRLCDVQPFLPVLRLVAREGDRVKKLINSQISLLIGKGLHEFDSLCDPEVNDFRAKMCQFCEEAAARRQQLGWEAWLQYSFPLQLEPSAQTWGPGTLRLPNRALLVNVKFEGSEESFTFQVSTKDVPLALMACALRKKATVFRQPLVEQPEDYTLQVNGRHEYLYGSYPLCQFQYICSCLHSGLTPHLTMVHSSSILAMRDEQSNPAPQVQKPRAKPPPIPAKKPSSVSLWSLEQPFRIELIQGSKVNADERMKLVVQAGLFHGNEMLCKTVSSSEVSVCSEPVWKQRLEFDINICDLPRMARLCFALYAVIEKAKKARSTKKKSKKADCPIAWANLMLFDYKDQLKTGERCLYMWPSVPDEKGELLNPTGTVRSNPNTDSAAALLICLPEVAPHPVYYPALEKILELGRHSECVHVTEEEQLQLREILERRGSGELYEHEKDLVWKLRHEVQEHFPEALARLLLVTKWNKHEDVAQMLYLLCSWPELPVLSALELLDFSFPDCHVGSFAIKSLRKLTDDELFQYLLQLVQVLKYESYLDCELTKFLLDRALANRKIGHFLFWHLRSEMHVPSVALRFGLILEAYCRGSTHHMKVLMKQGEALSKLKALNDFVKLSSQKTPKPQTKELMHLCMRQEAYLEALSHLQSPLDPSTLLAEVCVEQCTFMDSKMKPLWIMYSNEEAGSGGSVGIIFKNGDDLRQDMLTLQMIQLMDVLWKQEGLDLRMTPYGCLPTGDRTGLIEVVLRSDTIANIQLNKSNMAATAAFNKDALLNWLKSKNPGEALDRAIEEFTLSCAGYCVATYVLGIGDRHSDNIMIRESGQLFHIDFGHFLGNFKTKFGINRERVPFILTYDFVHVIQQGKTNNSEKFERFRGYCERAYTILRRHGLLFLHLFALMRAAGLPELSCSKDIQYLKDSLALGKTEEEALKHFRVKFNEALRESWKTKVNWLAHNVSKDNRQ
Chain of PI3Kδ (P27986 whole entry partner): as the sequence (P27986 whole entry partner) above
The nature of data set [6]: Pharmacokinetic study in SD rats, oral. It is filed as in vivo. The following applies: Sprague-Dawley, rat, plasma, 5 mg/kg. Here is the method: SD rats were utilized for the PK study of 8i following oral gavage at the dosage of 5 mg/kg, and the oral dose was formulated in a homogenous opaque suspension of 0.5% methylcellulose. This experiment was performed with the protocol disclosed in our previous work (Zhang et al., [2017b]). The study was carried out in accordance with institutional guidelines of the Animal Research Committee at Jiaxing University (log number JXU2015120812). The protocol was approved by the institution.

For another data set, the target named is PI3Kα (Homo sapiens, UniProt P42336). Description: PI3Kα enzymatic assay (Kinase-Glo Luminescent Kinase assay). It is filed as biochemical.
Data set [7] can be described thus: Liver microsomal stability assay, RLM. The following applies: Sprague-Dawley, rat, liver microsomes.
Data set [8] can be described thus: in vitro. To be noted: Sprague-Dawley, rat, microsomes.
Data set [9] in a line: in vitro. To be noted: human, microsomes.

Method for PI3Kα: (§3) Kinase-Glo Luminescent Kinase assay (Promega) was performed to determine the PI3Kα inhibitory activity, while ADP-Glo Luminescent assay (Promega) was performed to identify the inhibitory activity against PI3Kβ, γ, or δ. The kinase buffer was composed of HEPES (50 mM, pH 7.5), MgCl2 (3 mM), EGTA (1 mM), NaCl (100 mM), CHAPS (0.03%) and DTT (2 mM). The serially diluted compound solutions (2.5 mL) were successively added to a 384-well plate. Afterwards, the solution of kinase (2.5 mL) in the kinase buffer and the solution of substrate (5 mL) in the kinase buffer containing PIP2 and ATP were added to each well of the assay plate for starting the reaction. Kinase buffer was added instead to the control well without enzyme. […] After being incubated at room temperature for 1 h, Kinase-Glo reagent (10 mL) was added to each well of the PI3Kα assay plate to quench the reaction. […] The mixture was treated briefly with centrifuge, shaken slowly, and equilibrated for 40 min. Kinase Detection reagent (10 mL) was added to each well. Before reading on a plate reader for luminescence, the resultant mixture was incubated at room temperature for 1 h. After calculating the percent inhibition from the RLU values, the curves were fitted in Graphpad Prism 5 to give IC50 values.
Method for PI3Kβ: as §3
Method for PI3Kδ: as §3

Turning to `COc1ncc(-c2ccc3nccc(/C=C/C(=O)N4CCN(C)CC4)c3c2)cc1NS(=O)(=O)c1ccc(F)cc1F` [8i, (E)-2,4-difluoro-N-(2-methoxy-5-(4-(3-(4-methylpiperazin-1-yl)-3-oxoprop-1-en-1-yl)quinolin-6-yl)pyridin-3-yl)benzenesulfonamide], the IC50 against PI3Kγ was 0.55 nM; against PI3Kβ, 1.5 nM; in data set [4], 1.3 nM; against PI3Kδ, 1 nM; on PI3Kα, 0.5 nM. Also, at PI3Ks and mTOR, the “IC50 values against all the tested enzymes” value is “sub-nanomolar or low nanomolar level”. In data set [1], the “effect on the level of phos-Akt (Ser473) compared with GSK2126458” value is reported as “stronger”. Moreover, the “down-regulation of phos-Akt (Ser473), phos-Akt (Thr308), phos-S6 ribosomal protein (Ser235/236) and phos-4E-BP1 (Thr37/46)” value in data set [1] (at a concentration as low as 5 nM) was “dramatically down-regulated; also recorded: remarkably down-regulated”. For the same molecule, the values for the CLint scaled in data set [2] and in data set [7] were 16.6 mL/min/kg and under 17.3 mL/min/kg, respectively. The half-life is 74.9 min in [2], 104 min in [6] (read-out: elimination half-life t1/2 (converted)) and over 145 min in data set [7]. The figures for the microsomal CLint in data set [2] and in data set [7] were 18.5 µL/min/mg and under 9.6 µL/min/mg, respectively. Moreover, the share remaining at 1 h in [2] was determined as 57.1%; in [7] it was 72.8%. For the same molecule, the “GI50 HCT116” value in data set [3] (HCT116 cells) was “sub-micromolar”. In addition, the GI50 in data set [3] (Homo sapiens, HCT-116, HCT116 cells) is 470 nM; in data set [5] (Homo sapiens, PC-3, 72 h) it was under 500 nM; in data set [5], 400 nM. Further, the AUC(0-inf) in data set [6] is 412 ng·h/mL. Further, in data set [6], the AUC(0-t) is 379 ng·h/mL. Further, the peak level in data set [6] (Cmax) was 249 ng/mL.

For the molecule `C[C@]12CC[C@H]3[C@@H](CCC4=CC(=O)CC[C@@]43C)[C@@H]1CC[C@@H]2O` [Testosterone], the CLint scaled in the data set “in vitro [8]” turned out to be 3780 mL/min/kg. Moreover, in “in vitro [9]”, the CLint scaled came out at 91.1 mL/min/kg and the amount remaining at 1 h came out at 4.8%.
